Laboratory results published in patent US8993542B2, “Methods of treating viral infections” (priority 2008, dated 2015).

Experiments:
[1] = system: HIV-1; conditions: monotherapy in naïve patients (Louie et al.); cited from earlier work
[2] = system: HIV-1Ba-L
Description: The anti-HIV-1 activity of CMX157 is evaluated in two-drug combination studies with twenty-four different FDA-approved anti-HIV inhibitors. Each two-drug combination is tested three times in CEM T-lymphocytic cells or MAGI-CCR5 cells acutely infected with the laboratory-adapted strain HIV-1IIIB or HIV-1Ba-L, respectively. Viral growth/inhibition is evaluated by measuring virus-induced cytopathic effects (CPE) in CEM cells or by β-galactosidase reporter gene induction in MAGI-CCR5 cells at the experimental endpoint. The cytotoxicity of each two-drug combination is also evaluated in parallel with the antiviral evaluations. The concentrations of CMX157 used in these evaluations are selected in order to test a broad range of concentrations and to provide as complete a dose response curve as possible under the limitations of eight total concentrations. […] The “positive antagonism control” of d4T (stavudine) in combination with RBV was tested in parallel with each of the assays that were performed. Analysis of drug interactions for each of the two-drug combinations is performed using the Prichard and Shipman MacSynergy II three-dimensional model for statistical evaluation of combination assays.

[3] = system: HIV; experiment: microbe, parasite or virus in culture; assay type: cell-based
[4] = system: HIV-1IIIB; experiment: Two-drug combination antiviral assay in CEM cells (CPE), MacSynergy II; assay type: cell-based; conditions: in combination with CMX157, CEM-SS cells, 95% confidence
[5] = in combination with CMX157, MAGI-CCR5 cells, 95% confidence

In the case of CC(C)OC(=O)OCOP(=O)(CO[C@H](C)Cn1cnc2c(N)ncnc21)OCOC(=O)OC(C)C.O=C(O)/C=C/C(=O)O [TDF, 2,4,6,8-Tetraoxa-5-phosphanonanedioic acid, 5-[[(1R)-2-(6-amino-9H-purin-9-yl)-1-methylethoxy]methyl]-, bis(1-methylethyl) ester, 5-oxide, (2E)-2-butenedioate (1:1)], the viral load response [1] is given as −1.5 log.

For maraviroc [Maraviroc (MVC)], the “Antagonism Volume, Result 1” value [2, 5] was −3.82 nM^2 %, μM^2 % or nMμM %, the “Antagonism Volume, Result 2” value [2, 5] was −3.12 nM^2 %, μM^2 % or nMμM % and the “Antagonism Volume, Result 3” value [2, 5] was 0 nM^2 %, μM^2 % or nMμM %. The “Mean Antagonism Volume (n = 3)” value [2, 5] was −2.31 nM^2 %, μM^2 % or nMμM %, the “Mean Synergy Volume (n = 3)” value [2, 5] was 85.3 nM^2 %, μM^2 % or nMμM % and the “Synergy Volume, Result 1” value [2, 5] was 145 nM^2 %, μM^2 % or nMμM %. For the same compound, the “Synergy Volume, Result 2” value [2, 5] was 14.1 nM^2 %, μM^2 % or nMμM %, the “Synergy Volume, Result 3” value [2, 5] was 96.6 nM^2 %, μM^2 % or nMμM % and the “Interpretation of Antiviral Results (MacSynergy)” value ([2]; two-drug combination (with CMX157; control d4T/RBV), MAGI-CCR5 cells) was “slightly synergistic”.

In the case of OC[C@@H]1CC[C@H](n2cnc3c(O)ncnc32)O1 [ddI, 2′,3′-dideoxyinosine], the IC50 ([3]; Human immunodeficiency virus 1, PANEL 1, WT) is reported as 5.54 µM, the IC50 ([3]; Human immunodeficiency virus 1, PANEL 2, WT) is reported as 5.57 µM and the IC50 ([3]; Human immunodeficiency virus 1, PANEL 3, 6 TAMs, no 184) is reported as 8.76 µM. It also gave an IC50 ([3]; Human immunodeficiency virus 1, PANEL 6, 6 TAMs + 184) of 11.3 µM, an IC50 ([3]; Human immunodeficiency virus 1, PANEL 7, 184V) of 7.57 µM and an IC50 ([3]; Human immunodeficiency virus 1, PANEL 9, 69ins, no 184) of 22.2 µM. The IC50 ([3]; Human immunodeficiency virus 1, PANEL 12, 69ins + 184) was 24.3 µM, the IC50 ([3]; Human immunodeficiency virus 1, PANEL 14, 65R, no 184) was 9.17 µM and the IC50 ([3]; Human immunodeficiency virus 1, PANEL 15, 65R + 184V) was 14.3 µM. It also gave an IC50 ([3]; Human immunodeficiency virus 1, PANEL 17, L74V) of 8.94 µM, an IC50 ([3]; Human immunodeficiency virus 1, PANEL 19, L74V + M184V) of 11.1 µM and an IC50 ([3]; Human immunodeficiency virus 1, PANEL 26, 151M, no 184) of 63.2 µM. For the same compound, the IC50 ([3]; Human immunodeficiency virus 1, PANEL 28, 151M + 184) was 58 µM, the IC50 ([3]; Human immunodeficiency virus 1, PANEL 29, L74V − SDM) was 8.14 µM and the IC50 ([3]; Human immunodeficiency virus 1, PANEL 30, M184V − SDM) was 6.76 µM. It also gave an IC50 ([3]; Human immunodeficiency virus 1, PANEL 31, K65R − SDM) of 11 µM, an IC50 ([3]; Human immunodeficiency virus 1, PANEL 33, T215Y) of 6.29 µM and an IC50 ([3]; Human immunodeficiency virus 1, PANEL 34, T215Y + M184V) of 7.88 µM. For the same compound, the IC50 ([3]; Human immunodeficiency virus 1, PANEL 35, M41L + T215Y) was 6.29 µM, the IC50 ([3]; Human immunodeficiency virus 1, PANEL 37, M41L + T215Y + M184V) was 10.1 µM and the IC50 ([3]; Human immunodeficiency virus 1, PANEL 38, M41L + L210W + T215Y) was 7.5 µM. It also gave an IC50 ([3]; Human immunodeficiency virus 1, PANEL 39, M41L + L210W + T215Y) of 5.9 µM, an IC50 ([3]; Human immunodeficiency virus 1, PANEL 40, M41L + L210W + T215Y + M184V) of 8.18 µM and an IC50 ([3]; Human immunodeficiency virus 1, PANEL 41, M41L + L210W + T215Y + M184V) of 8.64 µM. For the same compound, the IC50 ([3]; Human immunodeficiency virus 1, PANEL 42, D67N + K70R) was 6.57 µM, the IC50 ([3]; Human immunodeficiency virus 1, PANEL 44, D67N + K70R + T215F + K219E + M184V) was 8.65 µM and the IC50 ([3]; Human immunodeficiency virus 1, PANEL 45, L210W + T215Y) was 5.51 µM. It also gave an IC50 ([3]; Human immunodeficiency virus 1, PANEL 46, D67N + K70E) of 7.73 µM, an IC50 ([3]; Human immunodeficiency virus 1, PANEL 47, D67N + K70E + M184V) of 7.25 µM and an IC50 ([3]; Human immunodeficiency virus 1, PANEL 48, K70E + M184V) of 9.91 µM. The “IC50 Fold Change” value ([3]; PANEL 1, WT) was 1.01, the “IC50 Fold Change” value ([3]; PANEL 2, WT) was 1.01 and the “IC50 Fold Change” value ([3]; PANEL 3, 6 TAMs, no 184) was 1.59. The “IC50 Fold Change” value ([3]; PANEL 6, 6 TAMs + 184) was 2.06, the “IC50 Fold Change” value ([3]; PANEL 7, 184V) was 1.38 and the “IC50 Fold Change” value ([3]; PANEL 9, 69ins, no 184) was 4.04. The “IC50 Fold Change” value ([3]; PANEL 12, 69ins + 184) was 4.43, the “IC50 Fold Change” value ([3]; PANEL 14, 65R, no 184) was 1.67 and the “IC50 Fold Change” value ([3]; PANEL 15, 65R + 184V) was 2.61. For the same compound, the “IC50 Fold Change” value ([3]; PANEL 17, L74V) was 1.63, the “IC50 Fold Change” value ([3]; PANEL 19, L74V + M184V) was 2.01 and the “IC50 Fold Change” value ([3]; PANEL 26, 151M, no 184) was 12.00. The “IC50 Fold Change” value ([3]; PANEL 28, 151M + 184) was 11.00, the “IC50 Fold Change” value ([3]; PANEL 29, L74V − SDM) was 1.48 and the “IC50 Fold Change” value ([3]; PANEL 30, M184V − SDM) was 1.23. The “IC50 Fold Change” value ([3]; PANEL 31, K65R − SDM) was 2.00, the “IC50 Fold Change” value ([3]; PANEL 33, T215Y) was 1.14 and the “IC50 Fold Change” value ([3]; PANEL 34, T215Y + M184V) was 1.43. The “IC50 Fold Change” value ([3]; PANEL 35, M41L + T215Y) was 1.14, the “IC50 Fold Change” value ([3]; PANEL 37, M41L + T215Y + M184V) was 1.84 and the “IC50 Fold Change” value ([3]; PANEL 38, M41L + L210W + T215Y) was 1.36. The “IC50 Fold Change” value ([3]; PANEL 39, M41L + L210W + T215Y) was 1.07, the “IC50 Fold Change” value ([3]; PANEL 40, M41L + L210W + T215Y + M184V) was 1.49 and the “IC50 Fold Change” value ([3]; PANEL 41, M41L + L210W + T215Y + M184V) was 1.57. For the same compound, the “IC50 Fold Change” value ([3]; PANEL 42, D67N + K70R) was 1.19, the “IC50 Fold Change” value ([3]; PANEL 44, D67N + K70R + T215F + K219E + M184V) was 1.57 and the “IC50 Fold Change” value ([3]; PANEL 45, L210W + T215Y) was 1.00. The “IC50 Fold Change” value ([3]; PANEL 46, D67N + K70E) was 1.41, the “IC50 Fold Change” value ([3]; PANEL 47, D67N + K70E + M184V) was 1.32 and the “IC50 Fold Change” value ([3]; PANEL 48, K70E + M184V) was 1.80. The “Antagonism Volume, Result 1” value [4] was −1.01 nM^2 %, μM^2 % or nMμM % and the “Synergy Volume, Result 1” value [4] was 3.38 nM^2 %, μM^2 % or nMμM %.
